Test results reported in ChEMBL document CHEMBL1201862, “PubChem BioAssay data set” (2004).
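Following 48 hours of exposure in 96-well plates, responses at five concentrations were used to interpolate endpoints linearly. GI50: concentration for 50% inhibition of growth.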 Calls of active or inactive are those of the source. Cut-off read from the data, not from the text of the source: active = GI50 up to about 1.1 µM and inactive = higher.

Assays:
Assay in all cases: DTP human tumour cell line panel, 48 h
ACHN = test system: ACHN
SF-268 = test system: SF-268
HCT-116 = test system: HCT-116
MDA-N = test system: MDA-N
OVCAR-5 = test system: OVCAR-5
NCI-H522 = test system: NCI-H522
786-0 = test system: 786-0
NCI/ADR-RES = test system: NCI/ADR-RES
K562 = test system: K562
U-251 = test system: U-251
SW-620 = test system: SW-620
SF-295 = test system: SF-295
SF-539 = test system: SF-539
A549 = test system: A549
TK-10 = test system: TK-10
MCF7 = test system: MCF7
OVCAR-8 = test system: OVCAR-8
MDA-MB-231 = test system: MDA-MB-231
MDA-MB-435 = test system: MDA-MB-435
HT-29 = test system: HT-29
NCI-H460 = test system: NCI-H460
Hs-578T = test system: Hs-578T
MOLT-4 = test system: MOLT-4
SN12C = test system: SN12C
IGROV-1 = test system: IGROV-1
KM12 = test system: KM12
HCC 2998 = test system: HCC 2998
HCT-15 = test system: HCT-15
SK-OV-3 = test system: SK-OV-3
RPMI-8226 = test system: RPMI-8226
OVCAR-4 = test system: OVCAR-4
SNB-75 = test system: SNB-75
CCRF-CEM = test system: CCRF-CEM
SK-MEL-5 = test system: SK-MEL-5
COLO 205 = test system: COLO 205
PC-3 = test system: PC-3
SR = test system: SR
UACC-257 = test system: UACC-257
HOP-62 = test system: HOP-62
EKVX = test system: EKVX
HL-60 = test system: HL-60
SK-MEL-28 = test system: SK-MEL-28
T47D = test system: T47D
SNB-19 = test system: SNB-19
M14 = test system: M14
UO-31 = test system: UO-31
LOX IMVI = test system: LOX IMVI
NCI-H226 = test system: NCI-H226
OVCAR-3 = test system: OVCAR-3
Malme-3M = test system: Malme-3M
NCI-H23 = test system: NCI-H23
SK-MEL-2 = test system: SK-MEL-2
DU-145 = test system: DU-145
RXF 393 = test system: RXF 393
UACC-62 = test system: UACC-62
CAKI-1 = test system: CAKI-1

Compound: Cc1ccc2n(c1)cc(-c1ccc(/C=N/NC(=N)N/N=C/c3ccc(-c4cn5cc(C)ccc5[n+]4C)cc3)cc1)[n+]2C
- GI50 (ACHN): 40.2 µM (inactive)
- GI50 (SF-268): 21.4 µM (inactive)
- GI50 (HCT-116): > 100 µM (inactive)
- GI50 (MDA-N): 50.2 µM (inactive)
- GI50 (OVCAR-5): > 100 µM (inactive)
- GI50 (NCI-H522): > 100 µM (inactive)
- GI50 (786-0): 36.3 µM (inactive)
- GI50 (NCI/ADR-RES): > 100 µM (inactive)
- GI50 (K562): > 10 µM (inactive)
- GI50 (U-251): > 100 µM (inactive)
- GI50 (SW-620): > 100 µM (inactive)
- GI50 (SF-295): > 100 µM (inactive)
- GI50 (SF-539): 39.8 µM (inactive)
- GI50 (A549): > 100 µM (inactive)
- GI50 (TK-10): > 100 µM (inactive)
- GI50 (MCF7): > 100 µM (inactive)
- GI50 (OVCAR-8): > 100 µM (inactive)
- GI50 (MDA-MB-231): > 100 µM (inactive)
- GI50 (MDA-MB-435): 35.6 µM (inactive)
- GI50 (HT-29): > 100 µM (inactive)
- GI50 (NCI-H460): 80.2 µM (inactive)
- GI50 (Hs-578T): 74.3 µM (inactive)
- GI50 (MOLT-4): > 100 µM (inactive)
- GI50 (SN12C): > 100 µM (inactive)
- GI50 (IGROV-1): > 100 µM (inactive)
- GI50 (KM12): > 100 µM (inactive)
- GI50 (HCC 2998): > 100 µM (inactive)
- GI50 (HCT-15): 95.9 µM
- GI50 (SK-OV-3): > 100 µM (inactive)
- GI50 (RPMI-8226): > 100 µM (inactive)
- GI50 (OVCAR-4): 26.9 µM (inactive)
- GI50 (SNB-75): 20.9 µM (inactive)
- GI50 (CCRF-CEM): > 100 µM (inactive)
- GI50 (SK-MEL-5): 41.1 µM (inactive)
- GI50 (COLO 205): > 100 µM (inactive)
- GI50 (PC-3): > 100 µM (inactive)
- GI50 (SR): > 100 µM (inactive)
- GI50 (UACC-257): 50.6 µM (inactive)
- GI50 (HOP-62): > 100 µM (inactive)
- GI50 (EKVX): > 100 µM (inactive)
- GI50 (HL-60): > 100 µM (inactive)
- GI50 (SK-MEL-28): 19.5 µM (inactive)
- GI50 (T47D): > 100 µM (inactive)
- GI50 (SNB-19): > 100 µM (inactive)
- GI50 (M14): 33.9 µM (inactive)
- GI50 (UO-31): 25.6 µM (inactive)

Compound: C=C1OC(=O)[C@]2([C@@H](/C=C/C)C=CC(=O)[C@H]2O)[C@@H]1O
- GI50 (LOX IMVI): > 100 µM (inactive)
- GI50 (ACHN): > 100 µM (inactive)
- GI50 (SF-268): > 100 µM (inactive)
- GI50 (HCT-116): > 100 µM (inactive)
- GI50 (MDA-N): > 100 µM (inactive)
- GI50 (NCI-H226): > 100 µM (inactive)
- GI50 (OVCAR-5): > 100 µM (inactive)
- GI50 (NCI-H522): > 100 µM (inactive)
- GI50 (786-0): > 100 µM (inactive)
- GI50 (NCI/ADR-RES): > 100 µM (inactive)
- GI50 (K562): > 100 µM (inactive)
- GI50 (U-251): > 100 µM (inactive)
- GI50 (SW-620): > 100 µM (inactive)
- GI50 (SF-295): > 100 µM (inactive)
- GI50 (SF-539): > 100 µM (inactive)
- GI50 (A549): > 100 µM (inactive)
- GI50 (TK-10): > 100 µM (inactive)
- GI50 (MCF7): > 100 µM (inactive)
- GI50 (OVCAR-8): > 100 µM (inactive)
- GI50 (MDA-MB-231): > 100 µM (inactive)
- GI50 (OVCAR-3): > 100 µM (inactive)
- GI50 (MDA-MB-435): > 100 µM (inactive)
- GI50 (Malme-3M): > 100 µM (inactive)
- GI50 (HT-29): > 100 µM (inactive)
- GI50 (NCI-H460): > 100 µM (inactive)
- GI50 (Hs-578T): > 100 µM (inactive)
- GI50 (MOLT-4): > 100 µM (inactive)
- GI50 (SN12C): > 100 µM (inactive)
- GI50 (IGROV-1): > 100 µM (inactive)
- GI50 (NCI-H23): > 100 µM (inactive)
- GI50 (KM12): > 100 µM (inactive)
- GI50 (HCC 2998): > 100 µM (inactive)
- GI50 (HCT-15): > 100 µM
- GI50 (SK-OV-3): > 100 µM (inactive)
- GI50 (RPMI-8226): > 100 µM (inactive)
- GI50 (SK-MEL-2): > 100 µM (inactive)
- GI50 (OVCAR-4): > 100 µM (inactive)
- GI50 (SNB-75): > 100 µM (inactive)
- GI50 (CCRF-CEM): > 100 µM (inactive)
- GI50 (SK-MEL-5): > 100 µM (inactive)
- GI50 (COLO 205): > 100 µM (inactive)
- GI50 (PC-3): > 100 µM (inactive)
- GI50 (SR): 73.6 µM (inactive)
- GI50 (DU-145): > 100 µM (inactive)
- GI50 (UACC-257): > 100 µM (inactive)
- GI50 (RXF 393): > 100 µM (inactive)
- GI50 (HOP-62): > 100 µM (inactive)
- GI50 (EKVX): > 100 µM (inactive)
- GI50 (HL-60): > 100 µM (inactive)
- GI50 (UACC-62): > 100 µM (inactive)
- GI50 (SK-MEL-28): > 100 µM (inactive)
- GI50 (T47D): > 100 µM (inactive)
- GI50 (CAKI-1): > 100 µM (inactive)
- GI50 (SNB-19): > 100 µM (inactive)
- GI50 (M14): > 100 µM (inactive)
- GI50 (UO-31): > 100 µM (inactive)
